# Data as given in PubChem BioAssay (NCI).
#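 Following 48 hours of exposure in 96-well plates, responses at five concentrations were used to interpolate endpoints linearly. Abbreviation: GI50, concentration required for 50% inhibition of growth. The concentration for full growth arrest is given as TGI.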
# How the values were obtained:
# Experiment in all cases: growth of human tumour cells (NCI), 48 h
# [1] = test system: 786-0 renal
# [2] = test system: A498 renal
# [3] = test system: A549 NSCLC
# [4] = test system: ACHN renal
# [5] = test system: BT-549 breast
# [6] = test system: CAKI-1 renal
# [7] = test system: CCRF-CEM leukemia
# [8] = test system: COLO 205 colon
# [9] = test system: DU-145 prostate
# [10] = test system: EKVX NSCLC
# [11] = test system: HCC-2998 colon
# [12] = test system: HCT-116 colon
# [13] = test system: HCT-15 colon
# [14] = test system: HL-60(TB) leukemia
# [15] = test system: HOP-62 NSCLC
# [16] = test system: HOP-92 NSCLC
# [17] = test system: HS 578T breast
# [18] = test system: HT29 colon
# [19] = test system: IGROV1 ovarian
# [20] = test system: K-562 leukemia
# [21] = test system: KM12 colon
# [22] = test system: LOX IMVI melanoma
# [23] = test system: M14 melanoma
# [24] = test system: MALME-3M melanoma
# [25] = test system: MCF7 breast
# [26] = test system: MDA-MB-231 breast
# [27] = test system: MDA-MB-435
# [28] = test system: MOLT-4 leukemia
# [29] = test system: NCI-H226 lung
compound,measurement,setting,value
Oc1ccc(CSc2nnc(-c3ccc(Cl)cc3)n2-c2ccccc2)c2cccnc12,GI50,[1],1.17 µM
same,TGI,[1],> 100 µM
same,GI50,[2],3.89 µM
same,TGI,[2],> 100 µM
same,GI50,[3],2.07 µM
same,TGI,[3],> 100 µM
same,GI50,[4],0.532 µM
same,TGI,[4],> 100 µM
same,GI50,[5],0.731 µM
same,TGI,[5],> 100 µM
same,GI50,[6],1.27 µM
same,TGI,[6],> 100 µM
same,GI50,[7],0.488 µM
same,TGI,[7],> 100 µM
same,GI50,[8],> 100 µM
same,TGI,[8],> 100 µM
same,GI50,[9],0.762 µM
same,TGI,[9],> 100 µM
same,GI50,[10],1.38 µM
same,TGI,[10],> 100 µM
same,GI50,[11],0.733 µM
same,TGI,[11],> 100 µM
same,GI50,[12],0.375 µM
same,TGI,[12],> 100 µM
same,GI50,[13],0.162 µM
same,TGI,[13],> 100 µM
same,GI50,[14],0.584 µM
same,TGI,[14],> 100 µM
same,GI50,[15],0.544 µM
same,TGI,[15],> 100 µM
same,GI50,[16],0.351 µM
same,TGI,[16],6.34 µM
same,GI50,[17],0.364 µM
same,TGI,[17],> 23.6 µM
same,GI50,[18],> 100 µM
same,TGI,[18],> 100 µM
same,GI50,[19],0.954 µM
same,TGI,[19],> 100 µM
same,GI50,[20],0.357 µM
same,TGI,[20],> 100 µM
same,GI50,[21],0.877 µM
same,TGI,[21],> 100 µM
same,GI50,[22],0.425 µM
same,TGI,[22],> 100 µM
same,GI50,[23],0.51 µM
same,TGI,[23],> 100 µM
same,GI50,[24],2.39 µM
same,TGI,[24],> 100 µM
same,GI50,[25],0.41 µM
same,TGI,[25],> 100 µM
same,GI50,[26],5.84 µM
same,TGI,[26],> 100 µM
same,GI50,[27],0.517 µM
same,TGI,[27],> 100 µM
same,GI50,[28],0.592 µM
same,TGI,[28],> 100 µM
same,GI50,[29],4.98 µM
